Measured values reported in BindingDB's records for doi:10.1016/s0960-894x(01)00331-6 (Dupont Pharmaceuticals, 2001).

Target: T1, Gag-Pol polyprotein [588-1027]/[588-1147] (Human immunodeficiency virus 1, UniProt P04585)
T1 construct: 588-1027; 588-1147
Experiment: HIV-1 RT Assay
Details: pH 8.2; 37 °C
From the text: The IC50 of reverse transcriptase is the concentration that inhibits 50% of recombinant HIV-1 RT RNA-directed DNA polymerase activity in vitro.

Question: Which IC50 does the source give for `CC(C)=CCO[C@H]1C(=O)Nc2ccc(Cl)cc2[C@@]1(C#CC1CC1)C(F)(F)F` [(3R,4R)-6-chloro-4-(2-cyclopropylethynyl)-3-[(3-methylbut-2-en-1-yl)oxy]-4-(trifluoromethyl)-1,2,3,4-tetrahydroquinolin-2-one] here?
Answer: > 2 µM

Question: Which IC50 does the source give for `COC(=O)N[C@H]1C(=O)Nc2ccc(Cl)cc2[C@@]1(C#CC1CC1)C(F)(F)F` [methyl N-[(3R,4R)-6-chloro-4-(2-cyclopropylethynyl)-2-oxo-4-(trifluoromethyl)-1,2,3,4-tetrahydroquinolin-3-yl]carbamate] here?
Answer: > 2 µM

Question: For `CC(=O)N[C@H]1C(=O)Nc2ccc(Cl)cc2[C@@]1(C#CC1CC1)C(F)(F)F` [N-[(3R,4R)-6-chloro-4-(2-cyclopropylethynyl)-2-oxo-4-(trifluoromethyl)-1,2,3,4-tetrahydroquinolin-3-yl]acetamide], which IC50 is on record?
Answer: > 2 µM

Question: Which IC50 does the source give for `O=C1Nc2ccc(Cl)cc2[C@@](C#CC2CC2)(C(F)(F)F)[C@H]1NCc1ccccc1` [(3R,4R)-3-(benzylamino)-6-chloro-4-(2-cyclopropylethynyl)-4-(trifluoromethyl)-1,2,3,4-tetrahydroquinolin-2-one] here?
Answer: > 2 µM

Question: How did the IC50 turn out when `O=C1Nc2ccc(Cl)cc2[C@@](C#CC2CC2)(C(F)(F)F)[C@H]1O` [(3R,4R)-6-chloro-4-(2-cyclopropylethynyl)-3-hydroxy-4-(trifluoromethyl)-1,2,3,4-tetrahydroquinolin-2-one] was run?
Answer: > 2 µM
